Results taken from patent US9771406B2, “Peptidic dual GLP-1/glucagon receptor agonists derived from exendin-4” (priority 2014, dated 2017).

How the values were obtained:
human GLP-1 receptor = target: T1, human GLP-1 receptor (Homo sapiens, UniProt P43220); assay: cAMP response of HEK-293 cells stably expressing human GLP-1 receptor (HTRF); assay type: cell-based; details: Table 6; cAMP formation; read-out: EC50 hGLP-1R
T1 construct: expressed in transfected cells; host or cells: HEK-293
Method: (§1) cAMP content of cells was determined using a kit from Cisbio Corp. (cat. no. 62AM4PEC) based on HTRF (Homogenous Time Resolved Fluorescence). For preparation, cells were split into T175 culture flasks and grown overnight to near confluency in medium (DMEM/10% FBS). Medium was then removed and cells washed with PBS lacking calcium and magnesium, followed by proteinase treatment with accutase (Sigma-Aldrich cat. no. A6964). Detached cells were washed and resuspended in assay buffer (1×HBSS; 20 mM HEPES, 0.1% BSA, 2 mM IBMX) and cellular density determined. They were then diluted to 400000 cells/ml and 25 μl-aliquots dispensed into the wells of 96-well plates. For measurement, 25 μl of test compound in assay buffer was added to the wells, followed by incubation for 30 minutes at room temperature.
(§2) Potencies of peptidic compounds at the GLP-1, glucagon and GIP receptors were determined by exposing cells expressing human glucagon receptor (hGCG R), human GIP (hGIP R) and human GLP-1 receptor (hGLP-1 R) to the listed compounds at increasing concentrations and measuring the formed cAMP as described in Methods.

human glucagon receptor = target: T2, human glucagon receptor (Homo sapiens, UniProt P47871); assay: cAMP response of HEK-293 cells stably expressing human glucagon receptor (HTRF); assay type: cell-based; details: Table 6; cAMP formation; read-out: EC50 hGlucagon-R
T2 construct: expressed in transfected cells; host or cells: HEK-293
Method: as §1, §2

human GIP receptor = target: T3, human GIP receptor (Homo sapiens, UniProt P48546); assay: cAMP response of HEK-293 cells stably expressing human GIP receptor (HTRF); assay type: cell-based; details: Table 6; cAMP formation; read-out: EC50 hGIP-R
T3 construct: expressed in transfected cells; host or cells: HEK-293
T3 sequence (P48546 22-466): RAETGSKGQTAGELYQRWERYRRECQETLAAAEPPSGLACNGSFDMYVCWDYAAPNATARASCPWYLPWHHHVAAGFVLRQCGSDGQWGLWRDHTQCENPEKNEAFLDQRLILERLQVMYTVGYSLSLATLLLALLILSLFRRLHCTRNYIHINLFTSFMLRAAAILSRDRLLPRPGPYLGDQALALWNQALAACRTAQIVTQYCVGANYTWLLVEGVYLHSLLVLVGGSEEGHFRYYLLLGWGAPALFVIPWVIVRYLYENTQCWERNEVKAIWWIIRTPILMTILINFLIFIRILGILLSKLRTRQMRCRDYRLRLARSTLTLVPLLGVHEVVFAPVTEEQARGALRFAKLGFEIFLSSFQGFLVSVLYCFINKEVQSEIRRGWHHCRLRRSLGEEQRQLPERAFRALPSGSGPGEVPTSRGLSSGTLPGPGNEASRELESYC
Method: as §1, §2

[1] = Solubility testing of exendin-4 derivatives (HPLC-UV of supernatant); assay type: physicochemical
Method: Prior to the testing of solubility and stability of a peptide batch, its purity (HPLC-UV) was determined. […] Therefore, solutions from solid samples were prepared in different buffer systems with a concentration of 10 mg/mL compound based on the previously determined % purity. HPLC-UV was performed after 2 h of gentle agitation from the supernatant, which was obtained by 20 min of centrifugation at 4500 rpm. […] This analysis also served as starting point (t0) for the stability testing.

[2] = Stability testing in solution, 7 days at 40° C. (% remaining peptide, HPLC-UV); assay type: physicochemical; details: buffer, 168 h
Method: After that time course, the sample was centrifuged for 20 min at 4500 rpm and 0.2 μL of the supernatant were analysed with HPLC-UV.
For determination of the amount of the remaining peptide, the peak areas of the target compound at t0 and t7 were compared, resulting in “% remaining peptide”, following the equation % remaining peptide=[(peak area peptide t7)×100]/peak area peptide t0.
The stability is expressed as “% remaining peptide”.

[3] = Pharmacokinetic testing in mice (plasma LC/MS); details: mouse, in vivo, sc, 1 mg/kg
Method: Mice are dosed 1 mg/kg subcutaneously (s.c.). The mice are sacrificed and blood samples are collected after 0.25, 0.5, 1, 2, 4, 8, 16 and 24 hours post application. Plasma samples are analyzed after protein precipitation via liquid chromatography mass spectrometry (LC/MS). PK parameters and half-life were calculated using WinonLin Version 5.2.1 (non-compartment model).
Pharmacokinetic profiles were determined as described in Methods.

T2 sequence (P47871 26-477): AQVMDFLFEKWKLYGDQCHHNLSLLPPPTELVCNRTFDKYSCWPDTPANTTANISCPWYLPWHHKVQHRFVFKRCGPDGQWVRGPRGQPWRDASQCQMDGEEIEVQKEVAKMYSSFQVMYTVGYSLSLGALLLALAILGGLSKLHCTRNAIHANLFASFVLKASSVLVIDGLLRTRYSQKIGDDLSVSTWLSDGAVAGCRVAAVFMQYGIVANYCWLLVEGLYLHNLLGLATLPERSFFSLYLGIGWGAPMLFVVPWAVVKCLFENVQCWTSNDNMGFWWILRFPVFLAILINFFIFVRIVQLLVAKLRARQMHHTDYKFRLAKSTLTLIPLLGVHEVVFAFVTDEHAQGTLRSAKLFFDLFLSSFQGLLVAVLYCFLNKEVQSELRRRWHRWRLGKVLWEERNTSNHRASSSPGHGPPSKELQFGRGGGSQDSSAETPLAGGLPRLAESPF
T1 sequence (P43220 24-463): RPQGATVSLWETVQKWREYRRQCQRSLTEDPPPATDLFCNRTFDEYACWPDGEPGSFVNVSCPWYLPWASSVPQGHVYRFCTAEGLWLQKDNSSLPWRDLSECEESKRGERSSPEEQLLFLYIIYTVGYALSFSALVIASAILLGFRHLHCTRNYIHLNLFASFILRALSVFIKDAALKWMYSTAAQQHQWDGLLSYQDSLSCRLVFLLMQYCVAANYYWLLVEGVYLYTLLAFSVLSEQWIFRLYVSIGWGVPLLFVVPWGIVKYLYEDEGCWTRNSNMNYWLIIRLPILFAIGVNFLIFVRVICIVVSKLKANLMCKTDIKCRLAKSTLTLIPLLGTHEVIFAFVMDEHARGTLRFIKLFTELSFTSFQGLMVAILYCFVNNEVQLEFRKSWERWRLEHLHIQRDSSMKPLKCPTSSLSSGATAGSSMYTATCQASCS

SMILES	EC50 (human GLP-1 receptor)	EC50 (human glucagon receptor)	EC50 (human GIP receptor)	solubility at 2 h ([1]; pH 4.5)	solubility at 2 h ([1]; pH 7.4)	Stability (pH 4.5), % remaining peptide [2]	Stability (pH 7.4), % remaining peptide [2]	Cmax [3]	half-life [3]
CCCCCCCCCCCCCCCC(=O)N[C@@H](CCC(=O)NCCCC[C@H](NC(=O)[C@H](CCC(N)=O)NC(=O)[C@H](CCCCN)NC(=O)[C@H](CO)NC(=O)[C@H](CC(C)C)NC(=O)[C@H](CC(=O)O)NC(=O)[C@H](CO)NC(=O)[C@@H](NC(=O)[C@H](Cc1ccccc1)NC(=O)[C@@H](NC(=O)CNC(=O)[C@H](Cc1c[nH]cn1)NC(=O)C(C)(C)NC(=O)[C@@H](N)Cc1c[nH]cn1)[C@@H](C)O)[C@@H](C)O)C(=O)N[C@@H](CCC(=O)O)C(=O)N[C@@H](CCC(=O)O)C(=O)N[C@@H](CCC(=O)O)C(=O)N[C@@H](C)C(=O)N[C@H](C(=O)N[C@@H](CCCNC(=N)N)C(=O)N[C@@H](CC(C)C)C(=O)N[C@@H](Cc1ccccc1)C(=O)N[C@H](C(=O)N[C@@H](CCC(=O)O)C(=O)N[C@@H](Cc1c[nH]c2ccccc12)C(=O)N[C@@H](CC(C)C)C(=O)N[C@@H](CCCCN)C(=O)N[C@@H](C)C(=O)NCC(=O)NCC(=O)N1CCC[C@H]1C(=O)N[C@@H](CO)C(=O)N[C@@H](CO)C(=O)NCC(=O)N[C@@H](C)C(=O)N1CCC[C@H]1C(=O)N1CCC[C@H]1C(=O)N1CCC[C@H]1C(=O)N[C@@H](CO)C(N)=O)[C@@H](C)CC)C(C)C)C(=O)O [compound 12]	3.3 pM	12.8 pM	8.8 pM	> 5000 µg/mL	> 5000 µg/mL	96.7%	92.0%	–	–
CCCCCCCCCCCCCCCC(=O)N[C@@H](CCC(=O)NCCCC[C@H](NC(=O)[C@H](CCC(N)=O)NC(=O)[C@H](CCCCN)NC(=O)[C@H](CO)NC(=O)[C@H](CC(C)C)NC(=O)[C@H](CC(=O)O)NC(=O)[C@H](CO)NC(=O)[C@@H](NC(=O)[C@H](Cc1ccccc1)NC(=O)[C@@H](NC(=O)CNC(=O)[C@H](Cc1c[nH]cn1)NC(=O)[C@@H](CO)NC(=O)[C@@H](N)Cc1c[nH]cn1)[C@@H](C)O)[C@@H](C)O)C(=O)N[C@@H](CCC(=O)O)C(=O)N[C@@H](CCC(=O)O)C(=O)N[C@@H](CCC(=O)O)C(=O)N[C@@H](C)C(=O)N[C@H](C(=O)N[C@@H](CCCNC(=N)N)C(=O)N[C@@H](CC(C)C)C(=O)N[C@@H](Cc1ccccc1)C(=O)N[C@H](C(=O)N[C@@H](CCC(=O)O)C(=O)N[C@@H](Cc1c[nH]c2ccccc12)C(=O)N[C@@H](CC(C)C)C(=O)N[C@@H](CCCCN)C(=O)N[C@@H](C)C(=O)NCC(=O)NCC(=O)N1CCC[C@H]1C(=O)N[C@@H](CO)C(=O)N[C@@H](CO)C(=O)NCC(=O)N[C@@H](C)C(=O)N1CCC[C@H]1C(=O)N1CCC[C@H]1C(=O)N1CCC[C@H]1C(=O)N[C@@H](CO)C(N)=O)[C@@H](C)CC)C(C)C)C(=O)O [compound 14]	4.1 pM	58.4 pM	437 pM	–	–	–	–	–	–
CCCCCCCCCCCCCCCC(=O)N[C@@H](CCC(=O)N[C@@H](CCC(=O)NCCCC[C@H](NC(=O)[C@H](CCC(N)=O)NC(=O)[C@H](CCCCN)NC(=O)[C@H](CO)NC(=O)[C@H](CC(C)C)NC(=O)[C@H](CC(=O)O)NC(=O)[C@H](CO)NC(=O)[C@@H](NC(=O)[C@H](Cc1ccccc1)NC(=O)[C@@H](NC(=O)CNC(=O)[C@H](Cc1c[nH]cn1)NC(=O)C(C)(C)NC(=O)[C@@H](N)Cc1c[nH]cn1)[C@@H](C)O)[C@@H](C)O)C(=O)N[C@@H](CCC(=O)O)C(=O)N[C@@H](CCC(=O)O)C(=O)N[C@@H](CCC(=O)O)C(=O)N[C@@H](C)C(=O)N[C@H](C(=O)N[C@@H](CCCNC(=N)N)C(=O)N[C@@H](CC(C)C)C(=O)N[C@@H](Cc1ccccc1)C(=O)N[C@H](C(=O)N[C@@H](CCC(=O)O)C(=O)N[C@@H](Cc1c[nH]c2ccccc12)C(=O)N[C@@H](CC(C)C)C(=O)N[C@@H](CCCCN)C(=O)N[C@@H](C)C(=O)NCC(=O)NCC(=O)N1CCC[C@H]1C(=O)N[C@@H](CO)C(=O)N[C@@H](CO)C(=O)NCC(=O)N[C@@H](C)C(=O)N1CCC[C@H]1C(=O)N1CCC[C@H]1C(=O)N1CCC[C@H]1C(=O)N[C@@H](CO)C(N)=O)[C@@H](C)CC)C(C)C)C(=O)O)C(=O)O [compound 11]	–	8.9 pM	7.9 pM	> 5000 µg/mL	> 5000 µg/mL	97.5%	95.8%	3510 ng/mL	3.3 h
